Data as given in patent US3939157A, “3-Benzyl-7-substituted acetamido-3-cephem-4-carboxylic acids and halogenated benzyl derivatives” (Beecham Group Limited, priority 1972, dated 1976).
Converted amounts (≈) assume the structure as drawn.

What was measured:
Format in all cases: cell-based
[1] = system: Staph.aureus Oxford; test: minimum inhibitory concentration (MIC) in agar, Staph.aureus Oxford; conditions: Staphylococcus aureus
Description: (§1) The minimum concentrations of this compound required to inhibit growth of five typical Gram-positive bacteria are tabulated below.
(§2) The minimum inhibitory concentrations (MIC) of the free acid (XIV) required to inhibit the growth of five typical Gram-positive bacteria are tabulated below:
(§3) t-Butyl 3-ethyl-7-(2-thienylacetamido)-3-cephem-4-carboxylate (23 mg) was treated with trifluoracetic acid at room temperature for 1 hour. The excess trifluoroacetic acid was distilled off azeotropically with dry benzene to give the free acid (XVII) as a gum (17 mg) .nu.max (CHCl3) 1770, 1705, 1680 cm^^-1 The minimum inhibitory concentrations of this compound required to inhibit the growth of five typical Gram-positive bacteria are tabulated below:
(§4) The cephem ester (XX) (28 mg) was dissolved in trifluoroacetic acid (0.8 ml) and allowed to stand at room temperature for 30 min.

[2] = system: Staph.aureus Russell; test: minimum inhibitory concentration (MIC) in agar, Staph.aureus Russell; conditions: Staphylococcus aureus
Description: as §1, §2, §3, §4

[3] = system: β-haemolytic Strep.CN10; test: minimum inhibitory concentration (MIC) in agar, β-haemolytic Strep.CN10
Description: as §1, §2, §3, §4

[4] = system: Strep.pneumoniae CN33; test: minimum inhibitory concentration (MIC) in agar, Strep.pneumoniae CN33; conditions: Streptococcus pneumoniae
Description: as §1, §2, §3, §4

[5] = system: B.subtilis; test: minimum inhibitory concentration (MIC) in agar, B.subtilis; conditions: Bacillus subtilis
Description: as §1, §2, §3, §4

Row | SMILES | MIC [1] [µg/mL] | MIC [2] [µg/mL] | MIC [3] [µg/mL] | MIC [4] [µg/mL] | MIC [5] [µg/mL]
1 | COC(=O)C1=C(Cc2ccccc2)CS[C@@H]2C(NC(=O)COc3ccccc3)C(=O)N12 (stereo partly shown) [II, Methyl 3-benzyl-7-phenoxyacetamido-3-cephem-4-carboxylate] | 0.98 (≈ 2.23 µM) | 15.6 (≈ 35.6 µM) | 1.95 (≈ 4.45 µM) | 0.98 (≈ 2.23 µM) | 1.95 (≈ 4.45 µM)
2 | N[C@@H](C(=O)NC1C(=O)N2C(C(=O)O)=C(Cc3ccccc3)CS[C@H]12)c1ccccc1 (stereo partly drawn) [VII; R = H, 3-Benzyl-7-[D-α-aminophenylacetamido]-3-cephem-4-carboxylic acid] | 0.1 (≈ 0.236 µM) | 2.5 (≈ 5.9 µM) | 0.1 (≈ 0.236 µM) | 1 (≈ 2.36 µM) | 0.25 (≈ 0.59 µM)
3 | O=C(Cc1cccs1)NC1C(=O)N2C(C(=O)O)=C(Cc3ccccc3)CSC12 (stereo not shown) [VI] | 0.05 (≈ 0.121 µM) | 10 (≈ 24.1 µM) | 0.2 (≈ 0.482 µM) | 0.2 (≈ 0.482 µM) | 0.2 (≈ 0.482 µM)
4 | O=C(Cc1cccs1)NC1C(=O)N2C(C(=O)O)=C(Cc3ccc(F)cc3)CS[C@H]12 (stereo partly shown) [XII, 3-p-fluorobenzyl-7-(2-thienylacetamido)-3-cephem-4-carboxylic acid] | 0.25 (≈ 0.578 µM) | 10 (≈ 23.1 µM) | 0.25 (≈ 0.578 µM) | 0.25 (≈ 0.578 µM) | 0.5 (≈ 1.16 µM)
5 | O=C(O)CSCC(=O)NC1C(=O)N2C(C(=O)O)=C(Cc3ccc(F)cc3)CSC12 (stereo not shown) [XIV, 3-p-fluorobenzyl-7-carboxymethylthioacetamido-3-cephem-4-carboxylate] | 5 (≈ 11.4 µM) | 50 (≈ 114 µM) | 25 (≈ 56.8 µM) | 25 (≈ 56.8 µM) | 100 (≈ 227 µM)
6 | CCC1=C(C(=O)O)N2C(=O)C(NC(=O)Cc3cccs3)[C@H]2SC1 (stereo partly shown) [XVII, 3-ethyl-7-(2-thienylacetamido)-3-cephem-4-carboxylic acid] | 2.5 (≈ 7.09 µM) | 2.5 (≈ 7.09 µM) | 2.5 (≈ 7.09 µM) | 2.5 (≈ 7.09 µM) | 2.5 (≈ 7.09 µM)
7 | O=C(Cc1cccs1)NC1C(=O)N2C(C(=O)O)=C(CC3CCCCO3)CS[C@H]12 (stereo partly shown) [XXII, 3-(2-tetrahydropyranylmethyl)-7-(2-thienylacetamido)-3-cephem-4-carboxylicacid] | 0.25 (≈ 0.592 µM) | 10 (≈ 23.7 µM) | 0.25 (≈ 0.592 µM) | 0.25 (≈ 0.592 µM) | 0.5 (≈ 1.18 µM)
8 | O=C(Cc1cccs1)NC1C(=O)N2C(C(=O)O)=C(CCc3ccccc3)CS[C@H]12 (stereo partly drawn) [XXVI, 3-β-phenylethyl-7-(2-thienylacetamido) -3-cephem-4-carboxylic acid] | 0.05 (≈ 0.117 µM) | 1.5 (≈ 3.5 µM) | 0.02 (≈ 0.0467 µM) | 0.15 (≈ 0.35 µM) | 0.05 (≈ 0.117 µM)
